Source: patent US9133122B2, “Amide compounds, compositions and uses thereof” (EVOTEC AG, priority 2008, dated 2015)

Assays:
hP2X3 = target: T1, hP2X3 (Homo sapiens, UniProt P56373); test: Calcium uptake assay (Ca influx), P2X antagonist assay, P2X3 homomer; type: cell-based; details: inhibition of agonist-induced calcium influx
T1 construct: expressed in transfected cells
T1 sequence (P56373 1-397): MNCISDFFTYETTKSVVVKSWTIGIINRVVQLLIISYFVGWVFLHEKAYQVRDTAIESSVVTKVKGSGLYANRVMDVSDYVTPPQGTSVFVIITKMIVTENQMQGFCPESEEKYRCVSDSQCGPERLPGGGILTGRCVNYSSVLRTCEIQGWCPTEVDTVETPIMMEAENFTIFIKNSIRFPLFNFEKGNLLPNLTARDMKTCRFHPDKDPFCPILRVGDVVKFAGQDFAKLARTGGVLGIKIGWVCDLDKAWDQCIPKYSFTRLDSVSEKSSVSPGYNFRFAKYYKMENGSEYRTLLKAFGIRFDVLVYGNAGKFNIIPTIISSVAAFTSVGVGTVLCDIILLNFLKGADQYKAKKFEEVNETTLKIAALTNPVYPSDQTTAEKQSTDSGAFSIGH
Text: (§1) Human P2X3 (Accession no. NM_002559), P2X2 (Accession no. NM_170682) and Rat P2X3 (Accession no. NM_031075) and P2X2 (Accession no. NM_053656) are cloned into a mammalian expression vector (e.g., pcDNAS/TO or pcDNA3 Invitrogen). The human P2X2/3 chimera clone is created as described by Neelands et al, and then cloned into an expression vector as above. Receptors are expressed in cells (e.g., HEK293 or 1321N1 (obtained from the ECACC)) via transient transfection using standard lipid mediated transfection, or by creation of stable transfectants for each receptor. For expression of the P2X2/3 heteromeric receptor, the P2X3 expression vector is stably transfected into a cell line already stably expressing P2X2. P2X2/3 heteromer function is isolated using pharmacological methods. Cell lines are maintained in DMEM+5% Glutamax, the appropriate level of selective antibiotic, and 10% heat inactivated FBS.
(§2) Functional activity of compounds at the P2X receptor is determined by measuring their ability to inhibit agonist-induced calcium influx. Compounds are tested for antagonist activity against the P2X2/3 chimera, the P2X3 homomer, or the P2X2/3 heteromer. At the start of each screening day, the agonist EC50 is determined. Compound % inhibition or IC50s are subsequently determined using a predetermined agonist concentration (EC50-90 depending on cell line) as a stimulus. The agonists used are αβMeATP, ATP, or other ATP analogs. Compounds may be tested at concentrations ranging from 1 pM to 10 μM.
(§3) To test for antagonist activity, cells expressing the appropriate receptor are seeded onto 96 or 384 well plates 18-24 hours prior to assay. On the day of the assay, cells are loaded with calcium-sensitive fluorescent dye (e.g., Fluo-4 no wash reagent-Invitrogen cat#F36206, or the BD™ PBX Calcium Assay Kit-BD cat #640175) in Hank's Buffered Salt Solution (HBSS) with up to 10 mM supplemental CaCl2. Plates are incubated at 37° C. and then equilibrated at room temperature. Antagonism of agonist-induced calcium influx is measured using a fluorescent imaging plate reader (e.g. FLIPR^TETRA, Molecular Devices, Sunnyvale, Calif.). The assay comprises two stages: a pre-treatment phase followed by a treatment phase. Compounds may be tested as follows: For the pre-treatment phase, 50 μL of 3× concentration of test compound in HBSS is added to cells containing 100 μL of dye loading media to achieve a final concentration of 1× test compound. For the treatment phase, at a set interval after pre-treatment (1-30 minutes), 50 μL of 1× test compound plus 4× agonist solution is added, resulting in a final concentration of 1× compound and 1× agonist. Fluorescence is measured at 0.1-3 second intervals—with an excitation wavelength of 494 nm and an emission wavelength of 515 nm. Responses are measured as (peak fluorescence after agonist addition) minus (baseline fluorescence prior to treatment). Percent inhibition is calculated as follows:
(§4) [formula] IC50 values are determined by analyzing dose response data in a 4 parameter logistic fit using GraphPad Prizm.
(§5) The following compounds have been or can be prepared according to the synthetic methods described herein. A calcium uptake assay was performed as described above and the activity of each compound is expressed as follows: […]

hP2X2/3H = target: T2, hP2X2/3H (Homo sapiens, UniProt P56373+Q9UBL9); test: Calcium uptake assay (Ca influx), P2X antagonist assay, P2X2/3 heteromer; type: cell-based; details: inhibition of agonist-induced calcium influx
T2 construct: expressed in transfected cells
T2 sequence (P56373 1-397): T1 sequence (P56373 1-397)
T2 sequence (Q9UBL9 1-471): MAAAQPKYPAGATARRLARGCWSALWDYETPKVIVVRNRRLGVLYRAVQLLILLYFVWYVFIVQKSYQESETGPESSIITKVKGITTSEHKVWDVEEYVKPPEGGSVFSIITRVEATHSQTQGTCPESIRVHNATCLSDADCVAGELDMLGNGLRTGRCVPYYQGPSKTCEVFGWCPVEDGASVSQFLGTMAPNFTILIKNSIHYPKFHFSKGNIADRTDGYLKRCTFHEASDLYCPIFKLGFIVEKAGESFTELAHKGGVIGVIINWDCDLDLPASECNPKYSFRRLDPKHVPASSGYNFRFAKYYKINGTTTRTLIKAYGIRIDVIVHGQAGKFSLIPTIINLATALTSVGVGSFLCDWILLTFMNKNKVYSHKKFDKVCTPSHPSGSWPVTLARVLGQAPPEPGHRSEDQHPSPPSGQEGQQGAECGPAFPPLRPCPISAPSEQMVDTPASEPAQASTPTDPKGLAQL
Text: as §1, §2, §3, §4, §5

Cc1ccc(-c2cc(C(=O)NCc3cnc(C)nc3)cc(-c3ccc(C)cn3)c2)cc1 [Compound 1, 4′-Methyl-5-(5-methyl-pyridin-2-yl)-biphenyl-3-carboxylic acid (2-methyl-pyrimidin-5-ylmethyl)-amide]
IC50 (hP2X3): 58.8 nM
IC50 (hP2X2/3H): 87.6 nM

Cc1ccc(-c2cc(C(=O)NCc3cnc(C)nc3)cc(-c3ncccn3)c2)cc1 [Compound 2, 4′-Methyl-5-pyrimidin-2-yl-biphenyl-3-carboxylic acid (2-methyl-pyrimidin-5-ylmethyl)-amide]
IC50 (hP2X3): 78.5 nM
IC50 (hP2X2/3H): 407 nM

COc1ccccc1-c1cc(C(=O)NCc2ccc(C)nc2)cc(-c2ccc(C)cc2)c1 [Compound 4, 2″-Methoxy-4-methyl-[1,1′;3′,1″]terphenyl-5′-carboxylic acid (6-methyl-pyridin-3-ylmethyl)-amide]
IC50 (hP2X3): 306 nM
IC50 (hP2X2/3H): 1060 nM

Cc1ccc(-c2cc(C(=O)NCc3ccc(C)nc3)cc(-c3ccc(F)cc3F)c2)cc1 [Compound 5, 2″,4″-Difluoro-4-methyl-[1,1′;3′,1″]terphenyl-5′-carboxylic acid (6-methyl-pyridin-3-ylmethyl)-amide]
IC50 (hP2X3): 1960 nM
IC50 (hP2X2/3H): 8310 nM

Cc1ccc(-c2cc(C(=O)NCc3ccc(C)nc3)cc(-c3ccccc3F)c2)cc1 [Compound 6, 2″-Fluoro-4-methyl-[1,1′;3′,1″]terphenyl-5′-carboxylic acid (6-methyl-pyridin-3-ylmethyl)-amide]
IC50 (hP2X3): 342 nM
IC50 (hP2X2/3H): 418 nM

COc1ccc(-c2cc(C(=O)NCc3ccc(C)nc3)cc(-c3ccc(C)cc3)c2)cc1 [Compound 7, 4″-Methoxy-4-methyl-[1,1′;3′,1″]terphenyl-5′-carboxylic acid (6-methyl-pyridin-3-ylmethyl)-amide]
IC50 (hP2X3): 2460 nM
IC50 (hP2X2/3H): 9200 nM

Cc1ccc(-c2cc(C(=O)NCc3ccc(C)nc3)cc(-c3ccccc3CO)c2)cc1 [Compound 8, 2″-Hydroxymethyl-4-methyl-[1,1′;3′,1″]terphenyl-5′-carboxylic acid (6-methyl-pyridin-3-ylmethyl)-amide]
IC50 (hP2X3): 182 nM
IC50 (hP2X2/3H): 116 nM

COc1ccc(-c2cc(C(=O)NCc3ccc(C)nc3)cc(-c3ccc(C)cc3)c2)c(OC)c1 [Compound 9, 2″,4″-Dimethoxy-4-methyl-[1,1′;3′,1″]terphenyl-5′-carboxylic acid (6-methyl-pyridin-3-ylmethyl)-amide]
IC50 (hP2X3): 484 nM
IC50 (hP2X2/3H): 415 nM

COc1ccc(-c2cc(C(=O)NCc3ccc(C)nc3)cc(-c3ccc(C)cc3)c2)cc1OC [Compound 10, 3″,4″-Dimethoxy-4-methyl-[1,1′;3′,1″]terphenyl-5′-carboxylic acid (6-methyl-pyridin-3-ylmethyl)-amide]
IC50 (hP2X3): 759 nM
IC50 (hP2X2/3H): 1270 nM

COc1cccc(-c2cc(C(=O)NCc3ccc(C)nc3)cc(-c3ccc(C)cc3)c2)c1 [Compound 11, 3″-Methoxy-4-methyl-[1,1′;3′,1″]terphenyl-5′-carboxylic acid (6-methyl-pyridin-3-ylmethyl)-amide]
IC50 (hP2X3): 485 nM
IC50 (hP2X2/3H): 1060 nM

COc1ncc(-c2cc(C(=O)NCc3ccc(C)nc3)cc(-c3ccc(C)cc3)c2)cn1 [Compound 12, 5-(2-Methoxy-pyrimidin-5-yl)-4′-methyl-biphenyl-3-carboxylic acid (6-methyl-pyridin-3-ylmethyl)-amide]
IC50 (hP2X3): 292 nM
IC50 (hP2X2/3H): 291 nM

Cc1ccc(-c2cc(C(=O)NCc3ccc(C)nc3)cc(-c3ccccc3CO)c2)nc1 [Compound 13, 2′-Hydroxymethyl-5-(5-methyl-pyridin-2-yl)-biphenyl-3-carboxylic acid (6-methyl-pyridin-3-ylmethyl)-amide]
IC50 (hP2X3): 9 nM
IC50 (hP2X2/3H): 12.9 nM

Cc1ccc(-c2cc(C(=O)NCc3ccc(C)nc3)cc(-c3ccccc3OC(F)(F)F)c2)nc1 [Compound 14, 5-(5-Methyl-pyridin-2-yl)-2′-trifluoromethoxy-biphenyl-3-carboxylic acid (6-methyl-pyridin-3-ylmethyl)-amide]
IC50 (hP2X3): 318 nM
IC50 (hP2X2/3H): 172 nM

Cc1ccc(-c2cc(C(=O)NCc3ccc(C)nc3)cc(-c3ccccc3F)c2)nc1 [Compound 15, 2′-Fluoro-5-(5-methyl-pyridin-2-yl)-biphenyl-3-carboxylic acid (6-methyl-pyridin-3-ylmethyl)-amide]
IC50 (hP2X3): 73.2 nM
IC50 (hP2X2/3H): 54.9 nM

COc1ncc(-c2cc(C(=O)NCc3ccc(C)nc3)cc(-c3ccc(C)cn3)c2)cn1 [Compound 16, 3-(2-Methoxy-pyrimidin-5-yl)-5-(5-methyl-pyridin-2-yl)-N-(6-methyl-pyridin-3-ylmethyl)-benzamide]
IC50 (hP2X3): 95.6 nM
IC50 (hP2X2/3H): 269 nM

Cc1ccc(-c2cc(C(=O)NCc3ccc(C)nc3)cc(-c3ccccc3C#N)c2)nc1 [Compound 17, 2′-Cyano-5-(5-methyl-pyridin-2-yl)-biphenyl-3-carboxylic acid (6-methyl-pyridin-3-ylmethyl)-amide]
IC50 (hP2X3): 21.6 nM
IC50 (hP2X2/3H): 24.5 nM

Cc1ccc(-c2cc(C(=O)NCc3ccc(C)nc3)cc(-c3ccc(C#N)cc3)c2)cc1 [Compound 24, 4″-Cyano-4-methyl-[1,1′;3′,1″]terphenyl-5′-carboxylic acid (6-methyl-pyridin-3-ylmethyl)-amide]
IC50 (hP2X3): 626 nM

Cc1ccc(-c2cc(C(=O)N[C@@H](C)CO)cc(-c3cccc(F)c3F)c2)nc1 [Compound 70, 2′,3′-Difluoro-5-(5-methyl-pyridin-2-yl)-biphenyl-3-carboxylic acid ((S)-2-hydroxy-1-methyl-ethyl)-amide]
IC50 (hP2X3): 43.2 nM

Cc1ccc(-c2cc(C(=O)N[C@@H](C)CO)cc(-c3c(C)cccc3C#N)c2)nc1 [Compound 72, 6′-Cyano-2′-methyl-5-(5-methyl-pyridin-2-yl)-biphenyl-3-carboxylic acid ((S)-2-hydroxy-1-methyl-ethyl)-amide]
IC50 (hP2X3): 59.4 nM

Cc1ccc(-c2cc(C(=O)N[C@@H](C)CO)cc(-c3ccc(C#N)cc3C)c2)nc1 [Compound 76, 4′-Cyano-2′-methyl-5-(5-methyl-pyridin-2-yl)-biphenyl-3-carboxylic acid ((S)-2-hydroxy-1-methyl-ethyl)-amide]
IC50 (hP2X3): 77.7 nM

Cc1ccc(-c2cc(C(=O)N[C@@H](C)CO)cc(-c3ccccc3CO)c2)nc1 [Compound 82, 2′-Hydroxymethyl-5-(5-methyl-pyridin-2-yl)-biphenyl-3-carboxylic acid ((S)-2-hydroxy-1-methyl-ethyl)-amide]
IC50 (hP2X3): 33.2 nM

Cc1ccc(-c2cc(C(=O)N[C@@H](C)CO)cc(-c3ccccc3CO)c2)c(C#N)c1 [Compound 88, 2-Cyano-2″-hydroxymethyl-4-methyl-[1,1′;3′,1″]terphenyl-5′-carboxylic acid ((S)-2-hydroxy-1-methyl-ethyl)-amide]
IC50 (hP2X3): 7.1 nM
